Source: US8912184B1, “Therapeutic and diagnostic methods” (Alzheimer's Institute of America, Inc., priority 2010, dated 2014)

Tests used:
[1] = tested on: HCT116 xenograft tumors; assay: NAD levels in tumor lysates of HCT116 xenograft mice; assay type: in vivo; conditions: single oral dose on day 0, after two days
Description: Exemplary Compound A was tested for its ability to deplete NAD levels and promote tumor regression in an HCT116 (i.e., a Naprt-proficient cancer) murine xenograft model. Three million HCT116 human colon carcinoma cells were injected subcutaneously into nu/nu mice to form tumors. Dosing was started ten days later when median tumor volume was >100 mm^3.
Exemplary Compound A was administered orally once on day 0 (arrow) to HCT116 tumor-bearing xenograft mice and NAD levels were determined for tumor lysates every other day for 8 days.

[2] = tested on: cell lines; assay: NA rescue phenotype of cell lines treated with Nampt inhibitor (Nicotinic Acid Rescue Cytotoxicity Assays); assay type: cell-based
Description: Cell lines were treated with a fixed dose of Exemplary Compound A and screened for NA rescue and Naprt1 expression by immunoblotting and qRT-PCR (Table 3). […] The 176 cell lines included 5 normal (non-cancerous) cell lines and 3 primary cell lines (italicized in the table), all of which rescued. Naprt1 was quantified by western blotting and qRT-PCR in 164 and 123 of the 176 cell lines, respectively. […] A statistically significant (p value <0.0001) correlation existed between a NA rescue phenotype and Naprt1 protein or mRNA expression levels.
Additionally, Nicotinic Acid (NA) rescue of cytotoxicity of Nampt inhibitors was assessed by two distinct methods. In the first method, Nampt1 inhibitor cytotoxicity was evaluated in the presence and absence of exogenous nicotinic acid (NA) at a fixed concentration. […] Twenty four hours after cells were plated, the media was removed and replaced with media containing 10 μM nicotinic acid. Compounds were then immediately added. Cell viability was then assessed at 72 h.
Cell viability was then assessed at 72 h.

[3] = of 176 cell lines tested, fixed dose

O=C(NCc1cccnc1)Nc1ccc(COc2ccccc2-c2ccccc2)cc1 [Exemplary Compound A, 1-{4-[(biphenyl-2-yloxy)methyl]phenyl}-3-(pyridin-3-ylmethyl)urea]
no: Rescuable by NA? ([2]; A172, glioma) | Rescuable by NA? ([2]; HCC827, NSCLC) | Rescuable by NA? ([2]; HT-1080, fibrosarcoma) | Rescuable by NA? ([2]; MiaPaCa2, pancreatic) | Rescuable by NA? ([2]; NCI-H460, NSCLC) | Rescuable by NA? ([2]; NCI-H522, NSCLC) | Rescuable by NA? ([2]; NCI-H929, multiple myeloma) | Rescuable by NA? ([2]; NCI-H1650, NSCLC) | Rescuable by NA? ([2]; OPM-2, multiple myeloma) | Rescuable by NA? ([2]; SF-295, glioma) | Rescuable by NA? ([2]; SU-DHL-5, DLBCL (NHL)) | Rescuable by NA? ([2]; U-87MG, glioma)
44%: Fraction not rescued by NA ([2]; myeloma, 9 cell lines tested)
Y (partial): Rescued by NA? (partial indicates <70% rescue) ([2]; DEL cells (lymphoma)) | Rescued by NA? (partial indicates <70% rescue) ([2]; H4 cells (brain; neuroglioma)) | Rescued by NA? (partial indicates <70% rescue) ([2]; Hepa1-6 cells (mouse; hepatoma)) | Rescued by NA? (partial indicates <70% rescue) ([2]; MOLP-8 cells (myeloma)) | Rescued by NA? (partial indicates <70% rescue) ([2]; MONO-MAC-6 cells (lymphocytic leukemia)) | Rescued by NA? (partial indicates <70% rescue) ([2]; NCI-H596 cells (lung (NSCLC))) | Rescued by NA? (partial indicates <70% rescue) ([2]; NOMO-1 cells (myelogenous leukemia)) | Rescued by NA? (partial indicates <70% rescue) ([2]; PFSK-1 cells (brain; malignant neuroectodermal tumor)) | Rescued by NA? (partial indicates <70% rescue) ([2]; RPMI-8226 cells (myeloma)) | Rescued by NA? (partial indicates <70% rescue) ([2]; SKM-1 cells (myelogenous leukemia)) | Rescued by NA? (partial indicates <70% rescue) ([2]; SR cells (lymphoma)) | Rescued by NA? (partial indicates <70% rescue) ([2]; SU-DHL-4 cells (lymphoma)) | Rescued by NA? (partial indicates <70% rescue) ([2]; SU-DHL-8 cells (lymphoma)) | Rescued by NA? (partial indicates <70% rescue) ([2]; SUP-M2 cells (lymphoma)) | Rescued by NA? (partial indicates <70% rescue) ([2]; no.11 cells (brain; glioma, anaplastic))
20%: Fraction not rescued by NA ([2]; fibrosarcoma, 5 cell lines tested) | Fraction not rescued by NA ([2]; kidney, 5 cell lines tested)
10%: Fraction not rescued by NA ([2]; myelogenous leukemia, 10 cell lines tested)
yes: Rescuable by NA? ([2]; COLO-205, colorectal) | Rescuable by NA? ([2]; DMS-114, SCLC) | Rescuable by NA? ([2]; HCT-116, colorectal) | Rescuable by NA? ([2]; HT29, colorectal) | Rescuable by NA? ([2]; NCI-H82, SCLC) | Rescuable by NA? ([2]; NCI-N87, gastric) | Rescuable by NA? ([2]; OCI-Ly19, DLBCL (NHL)) | Rescuable by NA? ([2]; OVCAR-8, ovarian)
16: number of cell lines partially rescued by NA [2, 3]
17%: Fraction not rescued by NA ([2]; lymphocytic leukemia, 6 cell lines tested)
50%: Fraction not rescued by NA ([2]; osteosarcoma, 6 cell lines tested)
25%: Fraction not rescued by NA ([2]; liver, 4 cell lines tested)
47: number of cell lines that did not rescue with NA [2, 3]
53%: Fraction not rescued by NA ([2]; brain, 30 cell lines tested)
14%: Fraction not rescued by NA ([2]; lung, small cell, 7 cell lines tested) | Fraction not rescued by NA ([2]; pancreas, 7 cell lines tested)
113: number of cell lines completely rescued by NA [2, 3]
94%: depletion of NAD in tumor lysates [1]
38%: Fraction not rescued by NA ([2]; lymphoma, 16 cell lines tested) | cancer cell lines that failed to be rescued or were only partially rescued by NA ([2]; panel of 147 cancer cell lines)
0%: Fraction not rescued by NA ([2]; bladder, 1 cell line tested) | Fraction not rescued by NA ([2]; breast, 7 cell lines tested) | Fraction not rescued by NA ([2]; colon, 6 cell lines tested) | Fraction not rescued by NA ([2]; gastric, 1 cell line tested) | Fraction not rescued by NA ([2]; melanoma, 3 cell lines tested) | Fraction not rescued by NA ([2]; ovary, 3 cell lines tested) | Fraction not rescued by NA ([2]; prostate, 2 cell lines tested)
27%: Fraction not rescued by NA ([2]; lung, NSCLC, 26 cell lines tested)
